# Results from patent EP0678295B1, “Manufacturing process of phospholipideactive principle complexes useful for the liposome preparation” (Citernesi, Ugo, priority 1994, dated 1995).
# Assay: Measurement of entrapment efficiency (ultracentrifugation of liposomes, HPLC determination of Vitamin A in both phases)
# Assay type: physicochemical
# Details: liposomes from gelified phospholipid /Vitamin A complex (Example 1A) plus physiologic solution, 325 nm
# Description: Measurement of entrapment efficiency.
# A gelified phospholipid /Vitamin A complex was prepared according to the procedure described in Example 1A.
# Liposomes were then obtained by adding a physiologic solution to the complex and subsequent stirring of the mixture.
# The obtained liposomes have been subjected to ultracentrifugation in order to separate the liposome phase from the water phase. In both phases Vitamin A was determined as follows.
# Phospholipid /vitamin A pellet resulting from the ultracentrifugation was dissolved in hexane, filtered under vacuum (0.2 .10^5 Pa) and determined by HPLC (high performance liquid chromatography) using two different HPLC columns: • 1) Column: Chromsep Nucleosil C18 100 mm x 3 ID Eluent: methanol Flow: 1 ml/min. Detecting wl: 325 nm • 2) Column: Pertsil 10 ODS Eluent: Methanol/water (90/10) Flow: 1ml/min. Detecting wl: 325 nm
# The water phase coming from the ultracentrifugation was analyzed for its vitamin A content using the same HPLC procedure and columns.
smiles,measurement,setting,value
"CC(=O)OC/C=C(C)/C=C/C=C(C)/C=C/C1=C(C)CCCC1(C)C [Vitamin A, Vitamin A acetate]",Vitamin A detected in the liposome phase,pellet after ultracentrifugation dissolved in hexane,almost all
same,Vitamin A detected in the aqueous phase,water phase after ultracentrifugation,No Vitamin A was detected
